Reference: patent EP4491625A1, “BENZO BICYCLIC COMPOUND, AND PREPARATION METHOD AND APPLICATION THEREOF” (Guangzhou Unirise Pharmaceutical Co., Ltd., priority 2022, dated 2023)
Like-named read-outs stand apart in the source and are kept apart here.

Experiments:
[1] = Pharmacokinetic study in rats (intravenous or gavage, plasma LC-MS/MS); type: in vivo; settings: SD rats; for F: po 5 mg/kg versus iv 1 mg/kg; for AUC(0-t) / Cmax / Tmax / half-life: rat, plasma
Method: SD rats: male, 6-8 weeks old, weighing 200-300 g, purchased from SPF ( Beijing ) Biotechnology Co.,Ltd..
At each PK sampling point, 200 µL of whole blood was collected into EDTA-K2 anticoagulant blood tubes and centrifuged at 4°C for 30 min to obtain plasma. Whole blood samples were placed on wet ice before centrifugation. All collected plasma samples were stored on dry ice or frozen until analyzed.
Approximately1 mg of the compound of the present application was weighed and dissolved in DMSO, vortexed and sonicated to obtain a 1 mg/mL standard stock solution. The standard stock solution was diluted with 50% aqueous acetonitrile to obtain standard working solutions with concentrations of 5, 10, 20, 50, 100, 500, 1000, 5000 and 10000 ng/mL. QC working solutions with concentrations of 10, 20, 500 and 8000 ng/mL were prepared using the same dilution method. These QC samples were prepared on the day of analysis in the same way as the standard curve samples.5 µL of standard working solution with concentrations of (5, 10, 20, 50, 100, 500, 1000, 5000 and 10000 ng/mL) was added to 50 µL of blank SD rat plasma to obtain a total volume of 55 µL with concentrations of 0.5-1000 ng/mL (0.5, 1, 2, 5, 10, 50, 100, 500, and 1000 ng/mL) of standard curve samples. QC samples with concentrations of (1 ng/ml (low-1) and 2 ng/ml (low-2), 50 ng/ml (medium), 800 ng/ml (high)) were configured separately.
55 µL of standard samples, 55 µL of QC samples or 55 µL of unknown samples (50 µL of plasma samples added to 5 µL of 50% aqueous acetonitrile) were added to 200 µL of acetonitrile containing an internal standard (dexamethasone) to precipitate proteins. […] The supernatant was taken and diluted 3-fold with water, and 5 µL of the supernatant dilution was injected into the LC-MS/MS system for quantitative analysis under the following assay conditions:
Column: HALO 90A Phenly-Hexyl, 2µm 2.1×30mm.
Pharmacokinetic parameters were calculated by the […] of Phoenix TM Winnonlin® 8.3 software.

[2] = Human liver microsome stability test; type: in vitro ADME; settings: pH 7.4; human liver microsomes 0.5 mg/mL, 1 µM compound, NADPH, 37 °C
Method: Preparation of compound working solutions: A high-concentration stock solution of the subject and control drug verapamil powder was prepared in DMSO and diluted to a working solution of 100 µM with DMSO before use, with a final concentration of 1 µM of the subject and verapamil.
Preparation of phosphate buffer salt (100 mM, pH 7.4): 7.098 g of disodium hydrogen phosphate was weighed and dissolved ultrasonically in 500 mL of purified water as solution A. 3.400 g of potassium dihydrogen phosphate was weighed and dissolved ultrasonically in 250 mL of purified water as solution B. Solution B was added to the inside of solution A to give a pH of 7.4.
Preparation of 10 mM NADPH: An appropriate amount of NADPH is now weighed before the experiment and a working solution of 10 mM concentration is prepared from phosphate solution.
Preparation of the incubation system: The incubation system was prepared according to the following table, and the incubation system was preheated in a water bath at 37 °C for 10 minutes before use.
Transfer 25 µL of NADPH or phosphate buffer salt to the above incubation system and add 2.5 µL of 100 µM subject or verapamil. For NADPH-added samples, double-parallel preparations were performed; for NADPH-negative samples, single-parallel preparations were performed.
30 µL of the suspension was taken at 0.5, 5, 15, 30, and 60 min, respectively. The reaction was terminated by adding 150 µL of acetonitrile containing the internal standard and vortexed for 10 min.
This was followed by centrifugation at 3220 g for 40 min for protein precipitation. 100 µL of supernatant was transferred to the injection plate and mixed with 100 µL of pure water for UPLC-MS/MS analysis.
All data calculations were performed by Microsoft Excel software. Peak areas were detected by extracted ion mapping. The in vitro half-life (t1/2) of the parent drug was assayed by fitting the natural logarithm of the percentage elimination of the parent drug linearly with time.
The in vitro half-life (t1/2) was calculated by slope: t1/2 = 0.693 / k
The in vitro clearance (in µL/min/mg) was calculated using the following formula: CLint =0.693/ t1/2 * (Incubation system volume (μL) / protein content (mg)) [formula]
Table 3 the experimental results of human liver microsome of the compounds provided in some examples of the present invention

GLP-1 receptor = molecular target: T1, GLP-1 receptor (Homo sapiens, UniProt P43220); test: cAMP detection assay of agonistic effect in HEK293 cells with high expression of hGLP-1R; type: cell-based
T1 construct: host or cells: HEK293
T1 sequence (P43220 24-463): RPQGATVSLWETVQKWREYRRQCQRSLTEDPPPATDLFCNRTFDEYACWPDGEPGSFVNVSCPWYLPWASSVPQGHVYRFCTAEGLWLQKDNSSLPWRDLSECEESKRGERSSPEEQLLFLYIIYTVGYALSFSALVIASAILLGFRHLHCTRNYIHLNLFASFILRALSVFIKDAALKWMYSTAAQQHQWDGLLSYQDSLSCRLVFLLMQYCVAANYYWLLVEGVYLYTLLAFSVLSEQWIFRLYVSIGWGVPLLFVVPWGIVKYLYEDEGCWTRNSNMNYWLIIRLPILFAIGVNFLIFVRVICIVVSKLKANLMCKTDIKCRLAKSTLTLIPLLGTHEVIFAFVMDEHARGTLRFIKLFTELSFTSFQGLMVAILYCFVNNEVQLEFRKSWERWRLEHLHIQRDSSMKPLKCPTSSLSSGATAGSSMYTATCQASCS
Method: The cells were constructed by Wuxi New Drug Development Co., Ltd. Shanghai.
The compound was prepared with DMSO to a working concentration of 100µM or 10µM. 10 points of 4-fold dilution (maximum concentration of 1000nM or 100nM after dilution) was done with Bravo V11.
The compound to be tested was diluted 4 times with Bravo to obtain 10 concentrations and the initial concentration was 100µM by Bravo V11. The initial concentration was 100µM.

AUC(0-t) ([1]; male, iv, 1 mg/kg) [ng·h/mL] | Cmax ([1]; male, iv, 1 mg/kg) [ng/mL] | Tmax ([1]; male, iv, 1 mg/kg) [h] | half-life ([1]; male, iv, 1 mg/kg) [h] | AUC(0-t) ([1]; male, po, 5 mg/kg) [ng·h/mL] | Cmax ([1]; male, po, 5 mg/kg) [ng/mL] | Tmax ([1]; male, po, 5 mg/kg) [h] | half-life ([1]; male, po, 5 mg/kg) [h] | EC50 (GLP-1 receptor; agonistic effect, cAMP, HEK293 cells with high expression of hGLP-1R, read-out: EC50) [nM] | SMILES | F [1] [%] | half-life at 1 µM [2] [h] | AUC(0-t) ([1]; iv, 1 mg/kg) [ng·h/mL] | Cmax ([1]; iv, 1 mg/kg) [ng/mL] | Tmax ([1]; iv, 1 mg/kg) [h] | half-life ([1]; iv, 1 mg/kg) [h] | AUC(0-t) ([1]; po, 5 mg/kg) [ng·h/mL] | Cmax ([1]; po, 5 mg/kg) [ng/mL] | Tmax ([1]; po, 5 mg/kg) [h] | half-life ([1]; po, 5 mg/kg) [h] | EC50 (GLP-1 receptor) [nM]
1240 | 2300 | 0.083 | 1.15 | 1960 | 754 | 1 | 2.56 | 0.23 | O=C(O)c1ccc2nc(CC3CC=C(c4cccc(OCc5ccc(Cl)c6cc(F)oc56)n4)CC3)n(C[C@@H]3CCO3)c2c1 (stereo partly drawn) [Compound 2, 2-((4-(6-((4-chloro-2-fluorobenzofuran-7-yl)methoxy)pyridin-2-yl)cyclohex-3-en-1-yl)methyl)-1-(((S)-oxetan-2-yl)methyl)-1H-benzo[d]imidazole-6-carboxylic acid] | 31.8 | 2.27 | – | – | – | – | – | – | – | – | –
– | – | – | – | – | – | – | – | – | O=C(O)c1ccc2nc(C[C@H]3CC[C@H](c4cccc(OCc5ccc(Cl)c6cc(F)oc56)n4)CC3)n(C[C@@H]3CCO3)c2c1 [Compound 27B, 2-(((1r,4S)-4-(6-((4-chloro-2-fluorobenzofuran-7-yl)methoxy)pyridin-2-yl)cyclohexyl)methyl)-1-(((S)-oxetan-2-yl)methyl)-1H-benzo[d]imidazole-6-carboxylic acid] | 44.4 | 1.7 | 1680 | 2830 | 0.083 | 0.707 | 3670 | 1160 | 0.833 | 4.18 | 0.17
